Numbered stars: 1 amine (or outer) side, 2 acyl side, 3 side chain; on linkers, the order of the positions; unused ones are H or OH. Bridge positions count the residues as written; N and C are the ends. Ends that are not written are not given here. Peptide text beside a SMILES is read from it. * marks the point of attachment. FITC = O=C1OC2(c3ccc(O)cc3Oc3cc(O)ccc32)c2ccc(NC(=S)*)cc21; X1 = O=C(C[*:2])Nc1cc(NC(=O)C[*:3])cc(C(=O)[*:1])c1; AEEA = NCCOCCOCC(=O)O

A word on the Kd: it is the concentration at which binding is half-saturated. The low end stands for higher affinity, the high end for lower affinity. One may read the EC50 as the concentration that produces a half-maximal response.

Assay [1] concerns the target TEAD4 (Homo sapiens, UniProt Q15561). As to the kind of experiment: Fluorescence polarization binding assay of FAM/FITC-labelled peptides to TEAD4. For orientation: Polarisation of emitted light reports the rotation of a fluorescent probe.
Assay [2] deals with AGS cells. As to the kind of experiment: Cell viability assay. It counts as cell-based. To be noted: 24 hours.

Chain of TEAD4 (Q15561 210-434): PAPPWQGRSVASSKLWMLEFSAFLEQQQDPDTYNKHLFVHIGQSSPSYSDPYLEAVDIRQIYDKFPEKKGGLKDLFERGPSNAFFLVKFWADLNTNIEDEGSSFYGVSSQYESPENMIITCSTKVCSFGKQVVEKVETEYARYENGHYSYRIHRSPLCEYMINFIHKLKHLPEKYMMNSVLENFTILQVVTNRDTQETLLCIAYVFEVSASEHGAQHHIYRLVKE

On to `CC(C)C[C@H](NC(=O)[C@H](CO)NC(=O)[C@H](Cc1ccccc1)NC(=O)[C@H](CC(=O)O)NC(=O)[C@H](Cc1c[nH]c2ccccc12)NC(=O)[C@H](Cc1ccccc1)NC(=O)[C@H](CO)NC(=O)[C@H](CCCCN)NC(=O)[C@@H]1CCCN1C(=O)[C@H](Cc1c[nH]c2ccccc12)NC(=O)[C@H](CCC(N)=O)NC(=O)CNC(=O)[C@@H](NC(=O)[C@H](CCCCN)NC(=O)[C@@H]1CCCN1C(=O)[C@H](CC(C)C)NC(=O)COCCOCCNC(=S)Nc1ccc2c(c1)C(=O)OC21c2ccc(O)cc2Oc2cc(O)ccc21)[C@@H](C)O)C(=O)NCC(=O)N[C@@H](CS)C(=O)NCC(=O)NCC(=O)N[C@@H](CO)C(=O)NCC(N)=O` [linear version of 15] ({FITC-AEEA}-LPKTGQWPKSFWDFSLGCGGSG-NH2; N-terminus and C-terminus assumed), for which, in assay [1], binding was characterised by a dissociation constant (Kd) of 6.3 µM. `CC(=O)N[C@@H](CC(C)C)C(=O)N1CCC[C@H]1C(=O)N[C@H]1CCCCNC(=O)c2cc3cc(c2)NC(=O)CSC[C@H](NC(=O)[C@H](CO)NC(=O)[C@H](C(C)C)NC(=O)[C@H](Cc2c[nH]c4ccccc24)NC(=O)[C@H](CO)NC(=O)[C@H]([C@@H](C)O)NC(=O)[C@H](CC(C)C)NC(=O)CNC(=O)[C@H]([C@@H](C)O)NC1=O)C(=O)N[C@@H](Cc1c[nH]cn1)C(=O)N[C@@H](Cc1ccccc1)C(=O)N[C@@H](CC(C)C)C(=O)N[C@@H](CCCNC(=N)N)C(=O)N[C@@H](CO)C(=O)N[C@@H](CC(C)C)C(=O)N[C@H](C(=O)NCC(=O)NCC(=O)N[C@@H](CO)C(=O)NCC(N)=O)CSCC(=O)N3` [compound 16] (Ac-LPKTGLTSWVSCHFLRSLCGGSG-NH2; linker 3-12-19 via X1): in assay [2] (at 10 μM, in presence of PDPA nanocarrier), the “inhibitory activity on AGS cells” value is on record as “little inhibitory inhibition”. Regarding “PKKKRKVDPKKKRKVDPKKKRKVNGLPKTGLTSWVSCHFLRSLCGGSG-NH2 (linker 28-37-44 via X1; C-terminus assumed) [16-NLS]”, the EC50 in assay [2] (read-out: cellular inhibitory activity EC50, AGS cells) is 8.3 µM.

These data come from article PMC11206207 (Chemical Science, 2024).
